In patent US20260103665A1, “Synovium-on-a-Chip” (New York University, priority 2022, published 2026):
Entries after “also recorded” stand apart in the source; their conditions may differ.

Key:
monocytes in the RA chip = assay: monocyte migration in the RA chip, live imaging microscopy; type: cell-based, human; conditions: RA chip primed with TNF-α versus not primed
From the text: Following the established inflammation in the RA chip, work pivoted to whether the RA inflammation can be maintained on-chip for a long period. The RA chip cultured for over 4 days and quantified inflammatory cytokines secretion with IL-6 and GM-CSF as indicator. […] It was previously shown that pre-treatment circulating type I IFN (T1IFN) activity predicts non-response to TNFi (Wampler-Muskardin et al., Front Immunol, 2020). Remarkably, no patient with a ratio >1.3 achieved remission or low disease activity. It is also possible to use single cell gene expression analysis to study blood monocytes in RA patients with high vs. low IFN-β-to-α activity ratio. […] Further on, the behaviors of monocytes in the RA chip are investigated by infusing monocytes into the central sinus of the chip, from which monocytes can distribute into the microvessel network and extravasate out of vessel. […] In addition, the effect of circulating T1IFNs on monocyte activation in the RA chip was studied.
The biomimetic Synovium-on-a-Chip (FIG. 4A) contains two areas to mimic the outer layer (lining layer) and an inner layer (sublining layer) of the synovium. […]
To confirm the role of TNF-α in regulating the RA inflammation, monitored first is monocyte dynamics in the RA device which is primed with or without TNF-α. […]

[1] = tested on: RA chip (HUVECs, RA patient derived FLS, RA patient monocyte-derived macrophage); assay: cytokine secretion profile of the RA chip with versus without TNF-α priming; type: cell-based, human
From the text: To study blood and synovial cells from RA patients to understand the biological basis for response/non-response to TNFi, disclosed herein is a microfluidics-based 3D vascularized organ-on-a-chip model of RA. The disclosed microphysiological system integrates key features that replicate in vivo synovial architecture and monitors dynamic interactions between the critical cell types of RA, such as monocyte, monocyte-derived macrophage, and fibroblast-like synoviocytes (FLS), in real time with live-cell imaging. The RA chip is compartmentalized into three functional regions, which are partitioned by regularly spaced trapezoid micropillars that confine cell-embedded hydrogels, by balancing surface tension and capillary forces, to mimic the native in vivo tissue architecture of synovitis. The different tissue regions are a central sinus that is lined with human umbilical vein endothelial cells (HUVECs), a synovial sublining, which contains vessels extending from the central sinus, and a synovial lining region (outer ring) connected with four medium reservoirs for medium supply. HUVECs and RA patient derived FLS, and RA patient monocyte-derived macrophage are infused into different regions sequentially and cultured for 7 days to establish a microvessel network and a layered structure of synovium.
With this established synovium structure on-chip, first profiled is the cytokine environment of the engineered RA chip at two conditions (with TNF-α priming versus without) to validate the inflammation status of the RA chip.
Following the established inflammation in the RA chip, work pivoted to whether the RA inflammation can be maintained on-chip for a long period. The RA chip cultured for over 4 days and quantified inflammatory cytokines secretion with IL-6 and GM-CSF as indicator. […] It was previously shown that pre-treatment circulating type I IFN (T1IFN) activity predicts non-response to TNFi (Wampler-Muskardin et al., Front Immunol, 2020). Remarkably, no patient with a ratio >1.3 achieved remission or low disease activity. […]

TNF-α
monocyte migration dynamics (migration velocity and distance) (monocytes in the RA chip): promoted monocyte migration dynamics; also recorded: Enhanced migration behaviors | secretion of IL-6 and GM-CSF ([1]; RA chip cultured for over 4 days after transient TNF-α treatment): generally decreased | secretion of cytokines (IL-6, GM-CSF, IL-8, MCP-1, MCP-3, MIP-3α) ([1]; RA chip with TNF-α priming versus without): increased secretion | inflammatory environment of the RA chip ([1]; primed with TNF-α at an interval of 2-3 days): maintained over 7 days
